Data from ChEMBL document CHEMBL2034891, “Discovery, design and synthesis of Y-shaped peroxisome proliferator-activated receptor δ agonists as potent anti-obesity agents in vivo” (Eur J Med Chem, 2012).
Blank lines part the entries; values can stand above or below the compound they belong to. Activity calls are given as the source filed them. The rule behind the calls is not given here.

Tests used:
[1] = target: T1, Peroxisome proliferator-activated receptor alpha (Homo sapiens, UniProt Q07869); assay: Transactivation activity at human PPARalpha expressed in african green monkey CV1 cells after 24 hrs by luciferase reporter gene assay; format: cell-based, CV-1
T1 sequence (Q07869 whole entry): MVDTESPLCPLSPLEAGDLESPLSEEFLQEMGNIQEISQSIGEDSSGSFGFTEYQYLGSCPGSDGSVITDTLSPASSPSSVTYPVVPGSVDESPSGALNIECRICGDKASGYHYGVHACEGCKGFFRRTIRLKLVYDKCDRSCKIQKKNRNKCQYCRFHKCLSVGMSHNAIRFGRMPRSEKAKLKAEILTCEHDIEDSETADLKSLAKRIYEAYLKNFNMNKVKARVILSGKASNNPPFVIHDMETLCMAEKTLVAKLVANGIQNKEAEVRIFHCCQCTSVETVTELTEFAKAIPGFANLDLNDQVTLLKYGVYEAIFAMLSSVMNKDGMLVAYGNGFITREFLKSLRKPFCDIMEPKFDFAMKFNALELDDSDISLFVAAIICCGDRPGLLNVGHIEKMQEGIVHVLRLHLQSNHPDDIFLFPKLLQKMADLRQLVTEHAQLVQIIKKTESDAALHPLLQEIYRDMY

[2] = target: T2, Peroxisome proliferator-activated receptor gamma (Homo sapiens, UniProt P37231); assay: Transactivation activity at human PPARgamma expressed in african green monkey CV1 cells after 24 hrs by luciferase reporter gene assay; format: cell-based, CV-1
T2 sequence (P37231 whole entry): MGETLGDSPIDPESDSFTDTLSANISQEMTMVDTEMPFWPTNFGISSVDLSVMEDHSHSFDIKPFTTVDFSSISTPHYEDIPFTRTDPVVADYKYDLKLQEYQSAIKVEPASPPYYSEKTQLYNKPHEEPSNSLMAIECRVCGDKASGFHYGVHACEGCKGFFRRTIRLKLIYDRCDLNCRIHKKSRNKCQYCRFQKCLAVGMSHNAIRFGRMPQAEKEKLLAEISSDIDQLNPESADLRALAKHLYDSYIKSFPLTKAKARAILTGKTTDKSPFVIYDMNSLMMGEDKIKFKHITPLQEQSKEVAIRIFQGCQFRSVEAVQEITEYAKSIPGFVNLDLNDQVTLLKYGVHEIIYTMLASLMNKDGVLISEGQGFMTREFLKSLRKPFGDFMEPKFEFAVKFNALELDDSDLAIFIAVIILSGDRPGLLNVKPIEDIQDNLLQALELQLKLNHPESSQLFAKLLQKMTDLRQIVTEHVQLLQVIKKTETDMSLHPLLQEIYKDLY

[3] = target: T3, Peroxisome proliferator-activated receptor delta (Homo sapiens, UniProt Q03181); assay: Transactivation activity at human PPARdelta expressed in african green monkey CV1 cells after 24 hrs by luciferase reporter gene assay; format: cell-based, CV-1
T3 sequence (Q03181 whole entry): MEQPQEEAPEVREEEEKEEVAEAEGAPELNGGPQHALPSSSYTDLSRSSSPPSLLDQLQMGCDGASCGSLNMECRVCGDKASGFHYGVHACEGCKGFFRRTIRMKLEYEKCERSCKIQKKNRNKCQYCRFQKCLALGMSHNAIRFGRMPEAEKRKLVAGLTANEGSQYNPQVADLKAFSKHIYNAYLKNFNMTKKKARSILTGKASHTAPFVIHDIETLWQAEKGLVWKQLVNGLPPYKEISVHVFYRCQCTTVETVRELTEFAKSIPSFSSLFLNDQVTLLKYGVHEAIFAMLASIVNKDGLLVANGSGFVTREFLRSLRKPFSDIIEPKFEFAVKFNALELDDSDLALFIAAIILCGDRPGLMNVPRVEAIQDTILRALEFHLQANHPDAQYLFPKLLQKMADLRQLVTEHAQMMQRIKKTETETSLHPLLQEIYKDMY

Mus musculus [4] = assay: Antiobesity activity in high-fat diet fed C57BL/6 mouse assessed as increase in body weight at 10 mg/kg, po QD measured after 78 days (reference value: 102%); format: functional
[5] = Oral bioavailability in ICR mouse at 10 mg/kg; format: ADME, organism-based; details: in vivo
Mus musculus [6] = assay: Antiobesity activity in high-fat diet fed C57BL/6 mouse assessed as decrease in serum free fatty acid level at 10 mg/kg, po QD relative to vehicle-treated control; format: functional; design: scale not given: the % may be the effect or the level left
[7] = Tmax in ICR mouse at 1 mg/kg, iv; format: ADME, organism-based; design: dose 1 mg/kg, route intravenous; details: in vivo
[8] = Mean residence time in ICR mouse at 1 mg/kg, iv; format: ADME, organism-based; design: dose 1 mg/kg, route intravenous; details: in vivo
Homo sapiens = species on record: Homo sapiens; assay: Selectivity ratio of EC50 for human PPARalpha to EC50 for human PPARdelta
[9] = Volume of distribution at steady state in ICR mouse at 1 mg/kg, iv; format: ADME, organism-based; design: dose 1 mg/kg, route intravenous; details: in vivo, read-out: Vdss
Mus musculus [10] = assay: Dose normalized AUC in ICR mouse at 1 mg/kg, iv; format: ADME, organism-based; design: dose 1 mg/kg, route intravenous; details: in vivo
[11] = Terminal half life in ICR mouse at 1 mg/kg, iv; format: ADME, organism-based; design: dose 1 mg/kg, route intravenous; details: in vivo, read-out: beta t1/2 (converted)
Mus musculus [12] = assay: Antiobesity activity in high-fat diet fed C57BL/6 mouse assessed as absence of fatty liver at 10 mg/kg, po QD hematoxylin and eosin staining-based histological analysis; format: functional, organism-based; design: dose 10 mg/kg
Mus musculus [13] = assay: AUMC in ICR mouse at 1 mg/kg, iv; format: ADME, organism-based; design: dose 1 mg/kg, route intravenous; details: in vivo
[14] = Cmax in ICR mouse at 1 mg/kg, iv; format: ADME, organism-based; design: dose 1 mg/kg, route intravenous; details: in vivo
Mus musculus [15] = assay: AUMC in ICR mouse at 10 mg/kg, po; format: ADME, organism-based; design: dose 10 mg/kg, route oral; details: in vivo
[16] = Cmax in ICR mouse at 10 mg/kg, po; format: ADME, organism-based; design: dose 10 mg/kg, route oral; details: in vivo
[17] = Clearance in ICR mouse at 10 mg/kg, po; format: ADME, organism-based; design: dose 10 mg/kg, route oral; details: in vivo
[18] = AUC in ICR mouse at 10 mg/kg, po; format: ADME, organism-based; design: dose 10 mg/kg, route oral; details: plasma
Mus musculus [19] = assay: Volume of distribution at steady state in ICR mouse at 10 mg/kg, po; format: ADME, organism-based; design: dose 10 mg/kg, route oral; details: in vivo
[20] = Clearance in ICR mouse at 1 mg/kg, iv; format: ADME, organism-based; design: dose 1 mg/kg, route intravenous; details: in vivo
[21] = target: T3, Peroxisome proliferator-activated receptor delta; assay: Binding affinity at human GST-tagged PPARdelta ligand binding domain after 1 hr by time-resolved FRET analysis
Mus musculus [22] = assay: Antiobesity activity in high-fat diet fed C57BL/6 mouse assessed as decrease in lipid accumulation on brown adipose tissue at 10 mg/kg, po QD hematoxylin and eosin staining-based histological analysis; format: functional, organism-based; design: dose 10 mg/kg
Mus musculus [23] = assay: Toxicity in high-fat diet fed C57BL/6 mouse assessed as decrease in food intake at 10 mg/kg, po QD relative to control; format: organism-based; design: dose 10 mg/kg, route oral; details: in vivo
Mus musculus [24] = assay: Antiobesity activity in high-fat diet fed C57BL/6 mouse assessed as decrease in lipid accumulation on white adipose tissue at 10 mg/kg, po QD hematoxylin and eosin staining-based histological analysis; format: functional, organism-based; design: dose 10 mg/kg
[25] = AUC in ICR mouse at 1 mg/kg, iv; format: ADME, organism-based; design: dose 1 mg/kg, route intravenous; details: plasma
Mus musculus [26] = assay: Antiobesity activity in high-fat diet fed C57BL/6 mouse assessed as decrease in serum triglyceride level at 10 mg/kg, po QD relative to vehicle-treated control; format: functional; design: scale not given: the % may be the effect or the level left
[27] = Mean residence time in ICR mouse at 10 mg/kg, po; format: ADME, organism-based; design: dose 10 mg/kg, route oral; details: in vivo
[28] = Tmax in ICR mouse at 10 mg/kg, po; format: ADME, organism-based; design: dose 10 mg/kg, route oral; details: in vivo
[29] = Terminal half life in ICR mouse at 10 mg/kg, po; format: ADME, organism-based; design: dose 10 mg/kg, route oral; details: in vivo, read-out: beta t1/2 (converted)
Mus musculus [30] = assay: Dose normalized AUC in ICR mouse at 10 mg/kg, po; format: ADME, organism-based; design: dose 10 mg/kg, route oral; details: in vivo
Mus musculus [31] = assay: Antiobesity activity in high-fat diet fed C57BL/6 mouse assessed as decrease in body weight gain at 10 mg/kg, po QD relative to control; format: functional; design: scale not given: the % may be the effect or the level left

SMILES: Cc1cc(SC(Cc2c(F)cccc2C(F)(F)F)c2sc(-c3ccc(C(F)(F)F)cc3)nc2C)ccc1OCC(=O)O (stereo unspecified)
EC50 [1]: > 10 µM
Ratio EC50 (Homo sapiens): 10000
EC50 [2]: > 10 µM
EC50 [3]: 1.2 nM
Activity (Mus musculus [31]): 24%

SMILES: CCCc1c(OCCCSc2ccc(CC(=O)O)cc2Cl)ccc2c(C(F)(F)F)noc12
EC50 [21]: 7.9 nM

SMILES: Cc1cc(SC(CCCCCCCCCCc2ccccc2)c2sc(-c3ccc(C(F)(F)F)cc3)nc2C)ccc1OCC(=O)O (stereo unspecified)
EC50 [1]: > 10 µM
EC50 [2]: > 10 µM

SMILES: COc1ccc(CC(Sc2ccc(OCC(=O)O)c(C)c2)c2sc(-c3ccc(C(F)(F)F)cc3)nc2C)cc1 (stereo unspecified)
EC50 [1]: > 10 µM
EC50 [2]: > 10 µM
EC50 [3]: 4.8 nM

SMILES: Cc1cc(SC(Cc2c(F)c(F)c(F)c(F)c2F)c2sc(-c3ccc(C(F)(F)F)cc3)nc2C)ccc1OCC(=O)O (stereo unspecified)
EC50 [1]: > 10 µM
Ratio EC50 (Homo sapiens): 10000
EC50 [2]: > 10 µM
EC50 [3]: 8.1 nM

SMILES: Cc1cc(SC(CCc2ccccc2)c2sc(-c3ccc(C(F)(F)F)cc3)nc2C)ccc1OCC(=O)O (stereo unspecified)
EC50 [1]: > 10 µM
EC50 [2]: > 10 µM
EC50 [3]: 2.6 nM

SMILES: Cc1cc(SC(Cc2cc(F)ccc2F)c2sc(-c3ccc(C(F)(F)F)cc3)nc2C)ccc1OCC(=O)O (stereo unspecified)
EC50 [1]: > 10 µM
Ratio EC50 (Homo sapiens): 10000
EC50 [2]: > 10 µM
EC50 [3]: 16.7 nM

More lines, main results first:

EC50 [1]: > 10 µM
EC50 [2]: > 10 µM
EC50 [3]: 490 nM
SMILES: Cc1cc(SC(Cc2cccc3ccccc23)c2sc(-c3ccc(C(F)(F)F)cc3)nc2C)ccc1OCC(=O)O (stereo unspecified)

EC50 [1]: > 10 µM
EC50 [2]: > 10 µM
SMILES: Cc1cc(SC(CCCc2ccccc2)c2sc(-c3ccc(C(F)(F)F)cc3)nc2C)ccc1OCC(=O)O (stereo unspecified)

EC50 [1]: > 10 µM
EC50 [2]: > 10 µM
SMILES: Cc1cc(SC(CCCCc2ccccc2)c2sc(-c3ccc(C(F)(F)F)cc3)nc2C)ccc1OCC(=O)O (stereo unspecified)

EC50 [1]: > 10 µM
EC50 [2]: > 10 µM
EC50 [3]: 9.4 nM
SMILES: Cc1cc(SC(Cc2ccc(C(F)(F)F)cc2)c2sc(-c3ccc(C(F)(F)F)cc3)nc2C)ccc1OCC(=O)O (stereo unspecified)

EC50 [1]: > 10 µM
bioavailability [5]: 88%
Tmax [7]: 19.8 min
MRT [8]: 5.98 h
Ratio EC50 (Homo sapiens): 10000
EC50 [2]: > 10 µM
Vd [9]: 0.131 L/kg
AUC/dose (Mus musculus [10]): 40.6 kg·µg·h/mL/mg
half-life [11]: 221 min
AUMC (Mus musculus [13]): 243 hr.hr.ug/ml
Cmax [14]: 8980 ng/mL
AUMC (Mus musculus [15]): 3340 hr.hr.ug/ml
EC50 [3]: 1.6 nM
Cmax [16]: 37900 ng/mL
CL/F [17]: 0.47 mL/min/kg
AUC [18]: 357 µg·h/mL
Vdss (Mus musculus [19]): 212 mL/kg
clearance [20]: 0.41 mL/min/kg
EC50 [21]: 13 nM
AUC [25]: 40600 ng·h/mL
MRT [27]: 9.32 h
Tmax [28]: 2.75 h
half-life [29]: 316 min
AUC/dose (Mus musculus [30]): 35.7 kg·µg·h/mL/mg
SMILES: Cc1cc(SC(Cc2ccccc2)c2sc(-c3ccc(C(F)(F)F)cc3)nc2C)ccc1OCC(=O)O (stereo unspecified)
Activity (Mus musculus [4]): 60%
Activity (Mus musculus [6]): 26%
Activity (Mus musculus [12]): Active
Activity (Mus musculus [22]): Active
Activity (Mus musculus [23]): Non-toxic
Activity (Mus musculus [24]): Active
Activity (Mus musculus [26]): 29%

EC50 [1]: > 10 µM
EC50 [2]: > 10 µM
EC50 [3]: 4.4 nM
SMILES: Cc1cc(SC(Cc2ccc(-c3ccccc3)cc2)c2sc(-c3ccc(C(F)(F)F)cc3)nc2C)ccc1OCC(=O)O (stereo unspecified)
